Source: US12077503B2, “Substituted cyclic amides and their use as herbicides” (FMC CORPORATION, priority 2015, dated 2024)

Columns and labels:
Format in all cases: in vivo
[1] = test system: corn (Zea mays); assay: Test A postemergence; details: Zea mays, post-emergence, 240 h, 125 g ai/ha, postemergence; visual injury after approximately 10 d; 0 to 100 scale (0 no effect, 100 complete control)
Method in brief: (§1)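 In a loam soil and sand blend, planted seeds got a preemergence directed soil spray, and young plants at the one- to two-leaf stage, 2–10 cm high, got a postemergence application; ~10 d greenhouse hold; injury rated visually, 0 = none, 100 = complete control.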

[2] = test system: giant foxtail (Setaria faberii); assay: Test A postemergence; details: Setaria faberi, post-emergence, 240 h, 125 g ai/ha, postemergence; visual injury after approximately 10 d; 0 to 100 scale (0 no effect, 100 complete control); read-out: Plant response rating, Foxtail, Giant
Method in brief: as §1

[3] = test system: pigweed (Amaranthus retroflexus); assay: Test A postemergence; details: Amaranthus retroflexus, post-emergence, 240 h, 125 g ai/ha, postemergence; visual injury after approximately 10 d; 0 to 100 scale (0 no effect, 100 complete control); read-out: Plant response rating, Pigweed
Method in brief: as §1

[4] = test system: Kochia (Kochia scoparia); assay: Test A postemergence; details: Bassia scoparia, post-emergence, 240 h, 125 g ai/ha, postemergence; visual injury after approximately 10 d; 0 to 100 scale (0 no effect, 100 complete control); read-out: Plant response rating, Kochia
Method in brief: as §1

[5] = test system: Galium (catchweed bedstraw, Galium aparine); assay: Test A postemergence; details: Galium, post-emergence, 240 h, 125 g ai/ha, postemergence; visual injury after approximately 10 d; 0 to 100 scale (0 no effect, 100 complete control); read-out: Plant response rating, Galium
Method in brief: as §1

[6] = test system: blackgrass (Alopecurus myosuroides); assay: Test A postemergence; details: Alopecurus myosuroides, post-emergence, 240 h, 125 g ai/ha, postemergence; visual injury after approximately 10 d; 0 to 100 scale (0 no effect, 100 complete control); read-out: Plant response rating, Blackgrass
Method in brief: as §1

[7] = test system: ragweed (common ragweed, Ambrosia elatior); assay: Test A postemergence; details: Ambrosia artemisiifolia, post-emergence, 240 h, 125 g ai/ha, postemergence; visual injury after approximately 10 d; 0 to 100 scale (0 no effect, 100 complete control); read-out: Plant response rating, Ragweed
Method in brief: as §1

[8] = test system: barnyardgrass (Echinochloa crus-galli); assay: Test A postemergence; details: Echinochloa crus-galli, post-emergence, 240 h, 125 g ai/ha, postemergence; visual injury after approximately 10 d; 0 to 100 scale (0 no effect, 100 complete control); read-out: Plant response rating, Barnyardgrass
Method in brief: as §1

[9] = test system: ryegrass, Italian (Italian ryegrass, Lolium multiflorum); assay: Test A postemergence; details: Lolium multiflorum, post-emergence, 240 h, 125 g ai/ha, postemergence; visual injury after approximately 10 d; 0 to 100 scale (0 no effect, 100 complete control); read-out: Plant response rating, Ryegrass, Italian
Method in brief: as §1

[10] = test system: wheat (Triticum aestivum); assay: Test A postemergence; details: Triticum aestivum, post-emergence, 240 h, 125 g ai/ha, postemergence; visual injury after approximately 10 d; 0 to 100 scale (0 no effect, 100 complete control); read-out: Plant response rating, Wheat
Method in brief: as §1

[11] = test system: giant foxtail (Setaria faberii); assay: Test A preemergence; details: Setaria faberi, pre-emergence, 240 h, preemergence, read-out: Plant response rating, Foxtail, Giant; for pest or weed control at 125 g/ha: 125 g ai/ha, visual rating after approx. 10 d, 0 to 100 scale where 0 is no effect and 100 is complete control; for pest or weed control at 500 g/ha: 500 g ai/ha, 0 to 100 scale, 0 = no effect, 100 = complete control
Method in brief: as §1

[12] = test system: Kochia (Kochia scoparia); assay: Test A preemergence; details: Bassia scoparia, pre-emergence, 240 h, preemergence, read-out: Plant response rating, Kochia; for pest or weed control at 125 g/ha: 125 g ai/ha, visual rating after approx. 10 d, 0 to 100 scale where 0 is no effect and 100 is complete control; for pest or weed control at 500 g/ha: 500 g ai/ha, 0 to 100 scale, 0 = no effect, 100 = complete control
Method in brief: as §1

[13] = test system: ragweed (common ragweed, Ambrosia elatior); assay: Test A preemergence; details: Ambrosia artemisiifolia, pre-emergence, 240 h, preemergence, read-out: Plant response rating, Ragweed; for pest or weed control at 125 g/ha: 125 g ai/ha, visual rating after approx. 10 d, 0 to 100 scale where 0 is no effect and 100 is complete control; for pest or weed control at 500 g/ha: 500 g ai/ha, 0 to 100 scale, 0 = no effect, 100 = complete control
Method in brief: as §1

[14] = test system: barnyardgrass (Echinochloa crus-galli); assay: Test A preemergence; details: Echinochloa crus-galli, pre-emergence, 240 h, preemergence, read-out: Plant response rating, Barnyardgrass; for pest or weed control at 125 g/ha: 125 g ai/ha, visual rating after approx. 10 d, 0 to 100 scale where 0 is no effect and 100 is complete control; for pest or weed control at 500 g/ha: 500 g ai/ha, 0 to 100 scale, 0 = no effect, 100 = complete control
Method in brief: as §1

[15] = test system: ryegrass, Italian (Italian ryegrass, Lolium multiflorum); assay: Test A preemergence; details: Lolium multiflorum, pre-emergence, 240 h, preemergence, read-out: Plant response rating, Ryegrass, Italian; for pest or weed control at 125 g/ha: 125 g ai/ha, visual rating after approx. 10 d, 0 to 100 scale where 0 is no effect and 100 is complete control; for pest or weed control at 500 g/ha: 500 g ai/ha, 0 to 100 scale, 0 = no effect, 100 = complete control
Method in brief: as §1

Compound | Corn plant response rating (crop injury, 0 = no effect, 100 = complete kill) at 125 g/ha [1] [%] | pest or weed control at 125 g/ha [2] [%] | pest or weed control at 125 g/ha [3] [%] | pest or weed control at 125 g/ha [4] [%] | pest or weed control at 125 g/ha [5] [%] | pest or weed control at 125 g/ha [6] [%] | pest or weed control at 125 g/ha [7] [%] | pest or weed control at 125 g/ha [8] [%] | pest or weed control at 125 g/ha [9] [%] | plant injury at 125 g/ha [10] [%] | pest or weed control at 125 g/ha [11] [%] | pest or weed control at 500 g/ha [11] [%] | pest or weed control at 125 g/ha [12] [%] | pest or weed control at 500 g/ha [12] [%] | pest or weed control at 125 g/ha [13] [%] | pest or weed control at 500 g/ha [13] [%] | pest or weed control at 125 g/ha [14] [%] | pest or weed control at 500 g/ha [14] [%] | pest or weed control at 125 g/ha [15] [%] | pest or weed control at 500 g/ha [15] [%]
Cc1cc([C@H]2CNC(=O)[C@@H]2C(=O)Nc2ccc(F)cc2F)ccc1F [Compound 718] | 0 | 30 | 0 | 30 | 40 | 20 | 0 | 70 | 0 | 0 | 70 | 90 | 0 | 60 | 0 | 40 | 90 | 90 | 30 | 30
Cc1cc([C@H]2CN(C)C(=O)[C@@H]2C(=O)Nc2ccc(F)c(F)c2F)ccc1F [Compound 719] | 90 | 90 | 50 | 60 | 60 | 60 | 30 | 90 | 50 | 80 | 90 | 90 | 70 | 80 | 20 | 70 | 90 | 90 | 70 | 90
Cc1ccc([C@H]2CNC(=O)[C@@H]2C(=O)Nc2cccc(F)c2F)c(F)c1 [Compound 720] | 0 | 20 | 0 | 50 | 50 | 20 | 0 | 90 | 0 | 0 | 60 | 90 | 20 | 70 | 0 | 80 | 90 | 100 | 0 | 20
